The target of assay [1] is T1, h-GABA-A α5β3γ2 (Homo sapiens (Human), UniProt P18507+P31644). The experiment in a line: Two-electrode voltage clamp electrophysiology in Xenopus oocytes expressing GABAA receptors, modulation of GABA EC20 current. Format: cell-based. The method in brief: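 Values are % modulation of an EC20 GABA response, derived point by point from the ratio of compound-exposed versus control current traces (extremum taken, 100×(fold−1)). Recordings used oocytes injected with human α5, β3, γ2 mRNA, clamped at −80 mV at room temperature, at least 3 oocytes each.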
On the technique in general: Two-electrode voltage clamp holds a large cell at a set potential and records current.

Assay [2] has as its target T1, h-GABA-A α5β3γ2. The experiment in a line: [3H]flumazenil competition binding assay, membranes of HEK293 cells expressing human GABAA receptors. In outline: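 Displacement of [3H]flumazenil from membranes of HEK293 cells transiently expressing human α5β3γ2 receptors, in Krebs-tris buffer pH 7.5. Incubation to equilibrium, 1 h at 4° C., then filtration and scintillation counting. Ki is the mean of two determinations.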

The mark [3] stands for this setting: % modulation of GABA EC20 = 100*(Fold increase−1), Xenopus oocytes.
[4] abbreviates: Xenopus oocytes, GABA EC20, test compound at approx. 30 fold its Ki.
The mark [5] stands for this setting: displacement of [3H]flumazenil 0.5 nM, HEK293 cells expressing human receptors, mean of two determinations, read-out: Ki h-GABA-A α5β3γ2.
[6] abbreviates: reference compounds, % modulation of GABA EC20.
[7] abbreviates: reference compounds, GABAA α5β3γ2 overexpressing oocytes, GABA EC20.
Where [8] appears, read: reference compounds, GABAA receptor α5β3γ2, read-out: Ki α5-human.

Like-named read-outs stand apart in the source and are kept apart here.

We go through 23 compounds from patent publication US20240279218A1 (Hoffmann-La Roche Inc., priority 2016, published 2024).

As usually defined, the Ki is the equilibrium dissociation constant of an inhibitor or competing ligand from its target.

`Cc1ccc(-c2noc(C)c2COc2cc3c(cn2)C(=O)N(CCO)C3)cn1` [Example 12, 2-(2-hydroxyethyl)-6-((5-methyl-3-(6-methylpyridin-3-yl)isoxazol-4-yl)methoxy)-1H-pyrrolo[3,4-c]pyridin-3(2H)-one]: on h-GABA-A α5β3γ2 [1] (setting [3]), the “Efficacy (GABA) %” value is 74%. Further, the “Fold increase h-GABA-A α5β3γ2 oocyte” value on h-GABA-A α5β3γ2 [1] (setting [4]) is listed as 1.74. Also, the Ki at h-GABA-A α5β3γ2 [2] (setting [5]) turned out to be 16.3 nM.
On to `CCO[C@H]1CC[C@H](NC(=O)c2ccc(OCc3c(-c4ccc(C)nc4)noc3C)nn2)CC1` [Example 195, N-(4-ethoxycyclohexyl)-6-((5-methyl-3-(6-methylpyridin-3-yl)-1,2-oxazol-4-yl)methoxy)pyridazine-3-carboxamide], for which the “Efficacy (GABA) %” value at h-GABA-A α5β3γ2 [1] (setting [3]) turned out to be 78%. Further, the “Fold increase h-GABA-A α5β3γ2 oocyte” value at h-GABA-A α5β3γ2 [1] (setting [4]) was 1.78. Further, the Ki on h-GABA-A α5β3γ2 [2] (setting [5]) was 17.3 nM.
On the same counts, the results for `CCC[C@@H](CO)NC(=O)c1ccc(OCc2c(-c3ccc(N(C)C)nc3)noc2C)nc1` [Example 141, (S)-6-((3-(6-(dimethylamino)pyridin-3-yl)-5-methylisoxazol-4-yl)methoxy)-N-(1-hydroxypentan-2-yl)nicotinamide] are 243%, 3.43 and 49.5 nM.
On to `Cc1ccc(-c2noc(C)c2COc2ccc(C(N)=O)nn2)cn1` [Example 18, 6-((5-methyl-3-(6-methylpyridin-3-yl)isoxazol-4-yl)methoxy)pyridazine-3-carboxamide], for which, on h-GABA-A α5β3γ2 [1] (setting [3]), the “Efficacy (GABA) %” value was 59%. Besides, on h-GABA-A α5β3γ2 [1] (setting [4]), the “Fold increase h-GABA-A α5β3γ2 oocyte” value came to 1.59. Also, the Ki on h-GABA-A α5β3γ2 [2] (setting [5]) came out at 10.2 nM.
For `Cc1ccc(-c2noc(C)c2COc2ccc(C(=O)NC3(C)CCS(=O)(=O)CC3)nn2)cn1` [Example 111, N-(4-methyl-1,1-dioxidotetrahydro-2H-thiopyran-4-yl)-6-((5-methyl-3-(6-methylpyridin-3-yl)isoxazol-4-yl)methoxy)pyridazine-3-carboxamide], at h-GABA-A α5β3γ2 [1] (setting [3]), the “Efficacy (GABA) %” value is 89%. Besides, the “Fold increase h-GABA-A α5β3γ2 oocyte” value on h-GABA-A α5β3γ2 [1] (setting [4]) was determined as 1.89. On h-GABA-A α5β3γ2 [2] (setting [5]), the inhibitory constant (Ki) is 4.6 nM.
On the same counts, the results for `CCC[C@@H](CO)NC(=O)c1ccc(OCc2c(-c3cnc(C)c(F)c3)noc2C)nc1` [Example 145, 6-((3-(5-fluoro-6-methyl-3-pyridyl)-5-methyl-isoxazol-4-yl)methoxy)-N-((1S)-1-(hydroxymethyl)butyl)pyridine-3-carboxamide] are 144%, 2.44 and 29 nM.
For `Cc1ccc(-c2noc(C)c2COc2ccc(C(=O)NC(C)(C)C)nn2)cn1` [Example 41, N-tert-butyl-6-((5-methyl-3-(6-methylpyridin-3-yl)isoxazol-4-yl)methoxy)pyridazine-3-carboxamide], in that order: 104%, 2.04 and 19.4 nM.
For `Cc1ccc(-c2noc(C)c2COc2ccc(C(=O)N[C@@H]3CCCC[C@H]3O)cn2)cn1` [Example 132, N-((1R,2R)-2-hydroxycyclohexyl)-6-((5-methyl-3-(6-methylpyridin-3-yl)isoxazol-4-yl)methoxy)pyridine-3-carboxamide], the “Efficacy (GABA) %” value on h-GABA-A α5β3γ2 [1] (setting [3]) was found to be 64%. The “Fold increase h-GABA-A α5β3γ2 oocyte” value on h-GABA-A α5β3γ2 [1] (setting [4]) was 1.64. At h-GABA-A α5β3γ2 [2] (setting [5]), the Ki worked out at 37.7 nM.
With `Cc1ccc(-c2noc(C)c2COc2ccc(C(=O)NC3CCOCC3)cn2)cc1` [RO-251, reference compound], the “Efficacy (GABA) %” value at h-GABA-A α5β3γ2 [1] (setting [6]) is recorded as −18%. Moreover, the “Fold increase h-GABA-A α5β3γ2 oocyte” value on h-GABA-A α5β3γ2 [1] (setting [7]) was found to be 0.82. Besides, at h-GABA-A α5β3γ2 [2] (setting [8]), the inhibition constant (Ki) is 1 nM.
As to `Cc1ccc(-c2noc(C3CC3)c2COc2ccc(C(=O)N[C@H]3CCOC3)nn2)cn1` [Example 182], on h-GABA-A α5β3γ2 [1] (setting [3]), the “Efficacy (GABA) %” value is recorded as 141%. In addition, the “Fold increase h-GABA-A α5β3γ2 oocyte” value at h-GABA-A α5β3γ2 [1] (setting [4]) is given as 2.41. For the same compound, the Ki at h-GABA-A α5β3γ2 [2] (setting [5]) was 59.6 nM.
On the same counts, the results for `Cc1ccc(-c2noc(C)c2COc2ccc(C(=O)N[C@H]3CCS(=O)(=O)C3)cn2)cn1` [Example 19, N-((3S)-1,1-dioxothiolan-3-yl)-6-((5-methyl-3-(6-methylpyridin-3-yl)-1,2-oxazol-4-yl)methoxy)pyridine-3-carboxamide] are 77%, 1.77 and 5.2 nM.
For `Cc1ccc(-c2noc(C)c2COc2ccc(C(=O)NCC(C)C)nn2)cn1` [Example 39, N-isobutyl-6-((5-methyl-3-(6-methylpyridin-3-yl)isoxazol-4-yl)methoxy)pyridazine-3-carboxamide], in that order: 89%, 1.89 and 14.6 nM.
On the same counts, the results for `Cc1ccc(-c2noc(C)c2COc2ccc(C(=O)NCCO)nn2)cn1` [Example 29, N-(2-hydroxyethyl)-6-((5-methyl-3-(6-methylpyridin-3-yl)isoxazol-4-yl)methoxy)pyridazine-3-carboxamide] are 81%, 1.81 and 8 nM.
As to `Cc1onc(-c2ccccn2)c1COc1ccc(C(=O)NC2CCOCC2)nn1` [RO-094, reference compound], the “Efficacy (GABA) %” value on h-GABA-A α5β3γ2 [1] (setting [6]) is given as −18%. In addition, the “Fold increase h-GABA-A α5β3γ2 oocyte” value at h-GABA-A α5β3γ2 [1] (setting [7]) came to 0.82. Besides, the Ki on h-GABA-A α5β3γ2 [2] (setting [8]) came to 2.9 nM.
As to `Cc1ccc(-c2noc(C)c2COc2ccc(C(=O)N[C@@H]3CC[C@@](O)(C(F)(F)F)C3)nn2)cn1` (single isomer, unassigned) [Example 149], the “Efficacy (GABA) %” value at h-GABA-A α5β3γ2 [1] (setting [3]) stood at 37%. For the same compound, at h-GABA-A α5β3γ2 [1] (setting [4]), the “Fold increase h-GABA-A α5β3γ2 oocyte” value was 1.37. The inhibitory constant (Ki) on h-GABA-A α5β3γ2 [2] (setting [5]) is 5 nM.
`COc1ccc(-c2noc(C)c2COc2ccc(C(=O)NC3CCOCC3)cn2)cn1` [Example 137, 6-((3-(6-methoxypyridin-3-yl)-5-methylisoxazol-4-yl)methoxy)-N-tetrahydropyran-4-yl-pyridine-3-carboxamide]: at h-GABA-A α5β3γ2 [1] (setting [3]), the “Efficacy (GABA) %” value was 55%. Further, the “Fold increase h-GABA-A α5β3γ2 oocyte” value on h-GABA-A α5β3γ2 [1] (setting [4]) is given as 1.55. Besides, the Ki on h-GABA-A α5β3γ2 [2] (setting [5]) stood at 25.4 nM.
As for `Cc1ccc(-c2noc(C)c2COc2ccc(C(=O)NC3CCOCC3)cn2)nn1` [Example 108, 6-((5-methyl-3-(6-methylpyridazin-3-yl)isoxazol-4-yl)methoxy)-N-tetrahydropyran-4-yl-pyridine-3-carboxamide], the “Efficacy (GABA) %” value at h-GABA-A α5β3γ2 [1] (setting [3]) worked out at 20%. Further, the “Fold increase h-GABA-A α5β3γ2 oocyte” value on h-GABA-A α5β3γ2 [1] (setting [4]) came to 1.2. Moreover, the inhibition constant Ki on h-GABA-A α5β3γ2 [2] (setting [5]) was 0.4 nM.
On the same counts, the results for `COc1ccc(-c2noc(C)c2COc2ccc(C(=O)NC(C)C)cn2)cn1` [Example 138, N-isopropyl-6-((3-(6-methoxypyridin-3-yl)-5-methylisoxazol-4-yl)methoxy)pyridine-3-carboxamide] are 46%, 1.46 and 93.8 nM.
With `Cc1ccc(-c2noc(C)c2COc2ccc(C(=O)NC3CN(C(C)C)C3)nn2)cn1` [Example 116, N-(1-isopropylazetidin-3-yl)-6-((5-methyl-3-(6-methylpyridin-3-yl)isoxazol-4-yl)methoxy)pyridazine-3-carboxamide], the “Efficacy (GABA) %” value on h-GABA-A α5β3γ2 [1] (setting [3]) is 59%. Moreover, the “Fold increase h-GABA-A α5β3γ2 oocyte” value at h-GABA-A α5β3γ2 [1] (setting [4]) came out at 1.59. Further, at h-GABA-A α5β3γ2 [2] (setting [5]), the inhibitory constant (Ki) stood at 4.9 nM.
For `Cc1ccc(-c2noc(C3CC3)c2COc2ccc(C(=O)NC3CC4(COC4)C3)nn2)cn1` [Example 181, 6-((5-cyclopropyl-3-(6-methylpyridin-3-yl)isoxazol-4-yl)methoxy)-N-(2-oxaspiro[3.3]heptan-6-yl)pyridazine-3-carboxamide], in that order: 147%, 2.47 and 68 nM.
Turning to `Cc1ccc(-c2noc(C)c2COc2ccc(C(=O)NCC3CC3)cn2)cn1` [Example 2, N-(cyclopropylmethyl)-6-((5-methyl-3-(6-methyl-3-pyridyl)isoxazol-4-yl)methoxy)pyridine-3-carboxamide], the “Efficacy (GABA) %” value on h-GABA-A α5β3γ2 [1] (setting [3]) is 63%. Besides, the “Fold increase h-GABA-A α5β3γ2 oocyte” value at h-GABA-A α5β3γ2 [1] (setting [4]) came to 1.63. The Ki at h-GABA-A α5β3γ2 [2] (setting [5]) was determined as 8.3 nM.
For `CCC[C@@H](CO)NC(=O)c1ccc(OCc2c(-c3ccc(C)nc3)noc2C(F)F)nc1` [Example 125, 6-((5-(difluoromethyl)-3-(6-methyl-3-pyridyl)isoxazol-4-yl)methoxy)-N-((1S)-1-(hydroxymethyl)butyl)pyridine-3-carboxamide], in that order: 142%, 2.42 and 59 nM.
As for `Cc1ccc(-c2noc(C)c2COc2ccc(C(=O)N[C@H]3CCCC(F)(F)[C@@H]3O)cn2)cn1` [Example 133, N-((1S,2R)-3,3-difluoro-2-hydroxycyclohexyl)-6-((5-methyl-3-(6-methylpyridin-3-yl)isoxazol-4-yl)methoxy)pyridine-3-carboxamide], the “Efficacy (GABA) %” value at h-GABA-A α5β3γ2 [1] (setting [3]) is given as 95%. The “Fold increase h-GABA-A α5β3γ2 oocyte” value on h-GABA-A α5β3γ2 [1] (setting [4]) amounted to 1.95. Further, the inhibition constant Ki on h-GABA-A α5β3γ2 [2] (setting [5]) stood at 43.1 nM.
